Like-named read-outs stand apart in the source and are kept apart here.
Legend:
Experiment in all cases: microbe, parasite or virus in culture
Assay type in all cases: cell-based
[1] = test system: pseudovirions harboring S protein from SARS-CoV-2 Alpha variant (B.1.1.7); conditions: for EC50: Severe acute respiratory syndrome coronavirus 2
[2] = test system: pseudovirions harboring S protein from SARS-CoV-2 Beta variant (B.1.351); conditions: for EC50: Severe acute respiratory syndrome coronavirus 2
[3] = test system: pseudovirions harboring S protein from SARS-CoV-2 Gamma variant (P.1); conditions: Severe acute respiratory syndrome coronavirus 2
[4] = test system: pseudovirions harboring S protein from SARS-CoV-2 Delta variant (B.1.617.2); conditions: for EC50: Severe acute respiratory syndrome coronavirus 2
[5] = read-out: EC50, inhibition of cellular entry of pseudovirions, Gamma variant

| Structure (SMILES) | inhibition of cellular entry of pseudovirions with Spike variants (in words), Alpha variant [1] | inhibition of cellular entry of pseudovirions with Spike variants (in words), Beta variant [2] | EC50 [3, 5] | inhibition of cellular entry of pseudovirions with Spike variants (in words), Delta variant [4] | EC50 ([1]; read-out: EC50, inhibition of cellular entry of pseudovirions, Alpha variant) | EC50 ([1]; read-out: EC50, prophylactic inhibition of cellular entry of pseudovirions, Alpha variant) | EC50 ([2]; read-out: EC50, inhibition of cellular entry of pseudovirions, Beta variant) | EC50 ([2]; read-out: EC50, prophylactic inhibition of cellular entry of pseudovirions, Beta variant) | EC50 ([3]; read-out: EC50, prophylactic inhibition of cellular entry of pseudovirions, Gamma variant) | EC50 ([4]; read-out: EC50, inhibition of cellular entry of pseudovirions, Delta variant) | EC50 ([4]; read-out: EC50, prophylactic inhibition of cellular entry of pseudovirions, Delta variant) |
| --- | --- | --- | --- | --- | --- | --- | --- | --- | --- | --- | --- |
| COc1ccc(/C=C/C(=O)C(F)(CC2CCC2)C(=O)/C=C/c2ccc(OC)c(OC)c2)cc1OC [Compound A, 4-fluoro-4-cyclobutylmethyl-1,7-bis(3,4-dimethoxyphenyl)hepta-1,6-diene-3,5-dione] | showed inhibition of cellular entry | showed inhibition of cellular entry | ~4 µM | showed inhibition of cellular entry | – | – | – | – | – | – | – |
| COc1ccc(/C=C/C(=O)C(CC2CCC2)C(=O)/C=C/c2ccc(OC)c(OC)c2)cc1OC [Compound B, 4-(cyclobutylmethyl)-1,7-bis(3,4-dimethoxyphenyl)hepta-1,6-diene-3,5-dione] | – | – | ~4.7 µM | – | ~4.4 µM | ~3.2 µM | ~4.7 µM | ~3.3 µM | ~3.6 µM | ~4.9 µM | ~3.8 µM |
